Test results reported in ChEMBL document CHEMBL5465560, “Selectivity Literature for EUbOPEN Chemogenomic Library” (2024).

Legend:
[1] = molecular target: Tyrosine-protein kinase ABL1 (Homo sapiens, UniProt P00519); test: Selectivity interaction (Kinase panel (KiNativ target engagement assay in Jurkat cells)) EUB0001635a ABL1; type: cell-based; settings: Selectivity number of off-targets 0.0, Selectivity number of targets 233.0, Source Knowledge https://www.sciencedirect.com/science/article/pii/S2451945619300674?via%3Dihub, at 1 µM
[2] = molecular target: T1, Serine/threonine-protein kinase Chk1 (Homo sapiens) (UniProt O14757); test: Selectivity interaction (KinomeScan (DiscoverX)) EUB0000229b CHEK1; settings: at 10 µM
T1 sequence (whole entry): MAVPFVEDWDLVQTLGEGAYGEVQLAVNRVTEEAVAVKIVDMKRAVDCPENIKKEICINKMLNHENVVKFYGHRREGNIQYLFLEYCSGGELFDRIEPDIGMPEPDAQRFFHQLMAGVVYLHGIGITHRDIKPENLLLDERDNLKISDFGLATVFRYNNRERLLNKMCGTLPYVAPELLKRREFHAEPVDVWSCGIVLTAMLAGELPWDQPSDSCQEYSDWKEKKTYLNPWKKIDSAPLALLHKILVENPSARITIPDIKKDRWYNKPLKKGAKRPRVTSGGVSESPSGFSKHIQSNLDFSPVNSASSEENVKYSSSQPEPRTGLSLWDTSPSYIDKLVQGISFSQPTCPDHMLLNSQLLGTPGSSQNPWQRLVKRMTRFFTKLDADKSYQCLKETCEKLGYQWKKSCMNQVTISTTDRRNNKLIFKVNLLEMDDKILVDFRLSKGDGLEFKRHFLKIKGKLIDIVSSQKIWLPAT

[3] = molecular target: Serine/threonine-protein kinase WNK3 (Homo sapiens) (UniProt Q9BYP7); test: Selectivity interaction (KinomeScan (DiscoverX)) EUB0000229b WNK3; settings: at 10 µM
[4] = molecular target: T2, Beta-adrenergic receptor kinase 1 (Homo sapiens) (UniProt P25098); test: Selectivity interaction (Kinase panel (Z-LYTE Assay)) EUB0001632a ADRBK1; settings: at 10 µM
T2 sequence (whole entry): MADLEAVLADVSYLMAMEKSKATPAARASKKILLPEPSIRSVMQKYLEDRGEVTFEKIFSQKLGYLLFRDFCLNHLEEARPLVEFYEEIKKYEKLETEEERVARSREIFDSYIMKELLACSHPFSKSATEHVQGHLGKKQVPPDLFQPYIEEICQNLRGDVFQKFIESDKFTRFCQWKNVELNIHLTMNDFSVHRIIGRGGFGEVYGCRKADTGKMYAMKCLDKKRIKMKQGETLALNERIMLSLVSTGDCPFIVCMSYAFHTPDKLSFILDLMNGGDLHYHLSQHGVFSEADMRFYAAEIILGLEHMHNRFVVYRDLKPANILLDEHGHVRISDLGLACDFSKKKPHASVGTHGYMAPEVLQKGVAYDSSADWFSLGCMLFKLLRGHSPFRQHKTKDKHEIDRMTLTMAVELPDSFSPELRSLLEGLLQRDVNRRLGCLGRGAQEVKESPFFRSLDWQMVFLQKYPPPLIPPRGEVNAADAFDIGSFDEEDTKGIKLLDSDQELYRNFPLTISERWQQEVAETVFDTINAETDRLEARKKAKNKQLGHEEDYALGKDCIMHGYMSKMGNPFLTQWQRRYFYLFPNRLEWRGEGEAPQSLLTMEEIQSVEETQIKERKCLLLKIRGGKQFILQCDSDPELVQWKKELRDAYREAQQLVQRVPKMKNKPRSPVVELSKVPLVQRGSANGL

[5] = molecular target: Glutamate receptor ionotropic, NMDA 1 (Homo sapiens) (UniProt Q05586); test: Selectivity interaction (Panel of non-epigenetic targets (kinases, GPCRs, ion channels, and transporters, Eurofins) ) EUB0000271b GRIN1; settings: at 1 µM
[6] = molecular target: T3, Serine/threonine-protein kinase ULK3 (Homo sapiens) (UniProt Q6PHR2); test: Selectivity interaction (KinomeScan (DiscoverX)) EUB0001049a ULK3; settings: at 1 µM
T3 sequence (whole entry): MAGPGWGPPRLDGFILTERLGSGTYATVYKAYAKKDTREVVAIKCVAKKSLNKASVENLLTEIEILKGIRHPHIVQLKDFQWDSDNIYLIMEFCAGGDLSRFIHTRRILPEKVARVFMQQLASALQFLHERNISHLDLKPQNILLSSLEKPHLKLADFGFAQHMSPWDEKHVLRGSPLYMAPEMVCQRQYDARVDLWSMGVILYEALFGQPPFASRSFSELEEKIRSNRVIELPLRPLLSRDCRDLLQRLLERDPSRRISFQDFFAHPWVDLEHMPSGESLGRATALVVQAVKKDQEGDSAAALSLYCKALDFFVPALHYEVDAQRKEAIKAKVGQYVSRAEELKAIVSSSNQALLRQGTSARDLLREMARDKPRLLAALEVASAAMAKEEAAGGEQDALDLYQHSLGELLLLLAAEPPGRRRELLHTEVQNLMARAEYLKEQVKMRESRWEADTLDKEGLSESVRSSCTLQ

[7] = molecular target: Cyclin-dependent kinase 2 (Homo sapiens, UniProt P24941); test: Selectivity interaction (ActivX KiNativ screen (kinase selectivity in THP-1 cell lysates)) EUB0000639a CDK2; type: subcellular; settings: lysate, at 0.2 µM
[8] = molecular target: Serine/threonine-protein kinase 16 (Homo sapiens, UniProt O75716); test: Selectivity interaction (ActivX KiNativ screen (kinase selectivity in THP-1 cell lysates)) EUB0000639a STK16; type: subcellular; settings: lysate, at 0.04 µM
[9] = molecular target: T4, Rhodopsin kinase GRK7 (Homo sapiens) (UniProt Q8WTQ7); test: Selectivity interaction (KinomeScan (DiscoverX)) EUB0000655a GRK7; settings: at 10 µM
T4 sequence (whole entry): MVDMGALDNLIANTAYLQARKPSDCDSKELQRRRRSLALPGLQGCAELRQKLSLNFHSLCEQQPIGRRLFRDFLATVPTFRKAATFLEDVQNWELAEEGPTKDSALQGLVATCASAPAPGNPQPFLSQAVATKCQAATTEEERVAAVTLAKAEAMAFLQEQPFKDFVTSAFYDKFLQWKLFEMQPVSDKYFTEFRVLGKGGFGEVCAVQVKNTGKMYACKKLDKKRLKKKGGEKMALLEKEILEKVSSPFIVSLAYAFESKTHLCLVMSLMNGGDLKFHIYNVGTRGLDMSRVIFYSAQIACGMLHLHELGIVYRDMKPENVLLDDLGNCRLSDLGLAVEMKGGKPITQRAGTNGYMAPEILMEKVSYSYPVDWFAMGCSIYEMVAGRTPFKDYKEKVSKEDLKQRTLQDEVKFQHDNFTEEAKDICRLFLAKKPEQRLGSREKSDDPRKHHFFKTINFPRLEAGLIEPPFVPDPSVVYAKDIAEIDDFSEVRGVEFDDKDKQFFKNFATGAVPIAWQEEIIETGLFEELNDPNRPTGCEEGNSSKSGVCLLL

[10] = molecular target: Serine/threonine-protein kinase WNK1 (Homo sapiens) (UniProt Q9H4A3); test: Selectivity interaction (Ambit KINOMEscan and KiNATiv profiling in Jurkat cells) EUB0000090b WNK1; type: cell-based; settings: at 1 µM

Sequence of Tyrosine-protein kinase ABL1 (P00519 whole entry): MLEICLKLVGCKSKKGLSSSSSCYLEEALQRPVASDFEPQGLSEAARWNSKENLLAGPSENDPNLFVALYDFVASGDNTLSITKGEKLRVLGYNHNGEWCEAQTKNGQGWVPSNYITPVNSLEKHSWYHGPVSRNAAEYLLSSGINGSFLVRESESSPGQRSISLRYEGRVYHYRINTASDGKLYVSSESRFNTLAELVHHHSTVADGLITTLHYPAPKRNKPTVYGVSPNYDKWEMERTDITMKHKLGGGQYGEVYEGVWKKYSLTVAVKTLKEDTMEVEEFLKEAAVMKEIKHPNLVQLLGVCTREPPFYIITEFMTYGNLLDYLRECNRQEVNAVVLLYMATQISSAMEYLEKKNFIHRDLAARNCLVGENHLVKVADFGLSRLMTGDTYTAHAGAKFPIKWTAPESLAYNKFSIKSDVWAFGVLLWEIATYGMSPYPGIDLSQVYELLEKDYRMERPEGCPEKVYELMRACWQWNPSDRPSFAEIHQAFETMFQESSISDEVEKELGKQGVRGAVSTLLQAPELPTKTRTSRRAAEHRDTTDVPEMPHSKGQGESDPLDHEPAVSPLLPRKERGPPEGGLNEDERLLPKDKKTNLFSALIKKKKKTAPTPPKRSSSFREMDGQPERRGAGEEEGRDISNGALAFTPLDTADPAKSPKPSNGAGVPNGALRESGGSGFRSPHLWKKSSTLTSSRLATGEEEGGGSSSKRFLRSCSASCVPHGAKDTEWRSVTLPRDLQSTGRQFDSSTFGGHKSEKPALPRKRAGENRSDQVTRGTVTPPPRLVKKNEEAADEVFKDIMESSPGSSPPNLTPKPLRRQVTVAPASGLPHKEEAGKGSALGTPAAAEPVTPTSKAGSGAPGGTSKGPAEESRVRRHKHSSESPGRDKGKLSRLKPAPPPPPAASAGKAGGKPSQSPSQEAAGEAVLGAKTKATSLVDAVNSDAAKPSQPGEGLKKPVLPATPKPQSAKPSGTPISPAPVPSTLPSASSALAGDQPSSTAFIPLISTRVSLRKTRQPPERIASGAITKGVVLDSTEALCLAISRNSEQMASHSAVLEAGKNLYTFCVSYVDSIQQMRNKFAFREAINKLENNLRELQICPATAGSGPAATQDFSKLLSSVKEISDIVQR
Sequence of Serine/threonine-protein kinase WNK3 (Homo sapiens) (Q9BYP7 whole entry): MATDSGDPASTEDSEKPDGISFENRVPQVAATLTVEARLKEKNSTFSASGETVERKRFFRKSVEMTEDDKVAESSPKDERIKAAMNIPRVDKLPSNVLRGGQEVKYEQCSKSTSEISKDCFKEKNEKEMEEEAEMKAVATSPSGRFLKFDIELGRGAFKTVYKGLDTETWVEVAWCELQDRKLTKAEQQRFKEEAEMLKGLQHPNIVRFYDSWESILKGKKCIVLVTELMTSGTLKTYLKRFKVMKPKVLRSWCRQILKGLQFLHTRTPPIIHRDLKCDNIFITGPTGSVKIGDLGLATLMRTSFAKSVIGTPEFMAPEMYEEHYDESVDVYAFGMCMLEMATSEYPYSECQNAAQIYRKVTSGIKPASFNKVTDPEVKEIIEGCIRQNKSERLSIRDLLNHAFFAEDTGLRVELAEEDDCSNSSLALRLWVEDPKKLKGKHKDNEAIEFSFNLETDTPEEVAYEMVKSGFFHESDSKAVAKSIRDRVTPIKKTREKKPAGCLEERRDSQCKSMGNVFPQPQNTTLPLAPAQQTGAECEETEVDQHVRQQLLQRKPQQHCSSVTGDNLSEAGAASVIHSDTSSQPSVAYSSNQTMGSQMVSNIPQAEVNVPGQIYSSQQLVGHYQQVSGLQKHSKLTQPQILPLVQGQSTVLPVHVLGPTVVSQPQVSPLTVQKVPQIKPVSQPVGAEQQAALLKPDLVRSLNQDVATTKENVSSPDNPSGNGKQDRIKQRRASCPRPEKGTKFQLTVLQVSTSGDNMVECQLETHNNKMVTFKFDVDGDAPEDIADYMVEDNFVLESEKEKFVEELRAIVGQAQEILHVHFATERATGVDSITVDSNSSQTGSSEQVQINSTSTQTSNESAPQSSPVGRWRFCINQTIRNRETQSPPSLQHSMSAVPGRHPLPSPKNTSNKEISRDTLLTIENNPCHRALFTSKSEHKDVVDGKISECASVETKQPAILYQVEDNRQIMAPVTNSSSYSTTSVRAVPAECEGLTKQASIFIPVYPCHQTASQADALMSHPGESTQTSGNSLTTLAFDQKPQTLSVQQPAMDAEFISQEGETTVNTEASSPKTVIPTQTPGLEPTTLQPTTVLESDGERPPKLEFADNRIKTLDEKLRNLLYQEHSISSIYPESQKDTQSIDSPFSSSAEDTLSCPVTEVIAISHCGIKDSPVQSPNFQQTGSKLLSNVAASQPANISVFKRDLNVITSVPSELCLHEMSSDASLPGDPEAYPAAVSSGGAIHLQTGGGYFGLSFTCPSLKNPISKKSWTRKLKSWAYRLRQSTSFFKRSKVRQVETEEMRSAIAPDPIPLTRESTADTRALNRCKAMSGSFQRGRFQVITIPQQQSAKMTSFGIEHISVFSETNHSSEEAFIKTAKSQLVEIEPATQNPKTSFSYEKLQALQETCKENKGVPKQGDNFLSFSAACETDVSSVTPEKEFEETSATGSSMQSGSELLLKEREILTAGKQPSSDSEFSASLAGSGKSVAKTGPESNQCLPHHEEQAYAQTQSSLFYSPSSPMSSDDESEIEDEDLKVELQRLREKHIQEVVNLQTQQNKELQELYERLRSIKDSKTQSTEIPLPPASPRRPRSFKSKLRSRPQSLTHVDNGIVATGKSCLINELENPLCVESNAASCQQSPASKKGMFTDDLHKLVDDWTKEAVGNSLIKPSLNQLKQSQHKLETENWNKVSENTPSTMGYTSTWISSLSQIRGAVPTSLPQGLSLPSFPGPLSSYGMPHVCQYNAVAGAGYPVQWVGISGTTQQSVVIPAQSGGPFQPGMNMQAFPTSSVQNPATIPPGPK
Sequence of Serine/threonine-protein kinase 16 (O75716 whole entry): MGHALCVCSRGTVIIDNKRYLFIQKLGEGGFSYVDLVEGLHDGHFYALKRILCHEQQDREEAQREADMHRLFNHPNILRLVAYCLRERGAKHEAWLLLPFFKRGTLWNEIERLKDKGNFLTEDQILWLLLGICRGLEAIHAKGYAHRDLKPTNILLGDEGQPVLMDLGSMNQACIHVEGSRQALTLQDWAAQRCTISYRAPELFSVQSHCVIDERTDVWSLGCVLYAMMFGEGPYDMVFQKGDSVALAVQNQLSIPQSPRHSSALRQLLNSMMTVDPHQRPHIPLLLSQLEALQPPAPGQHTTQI

With `C=CC(=O)Nc1ccc(C(=O)Nc2[nH]nc3c2CN(C(=O)N[C@H](CN(C)C)c2ccccc2)C3(C)C)cc1` the % of engagement [1] was -12.6%.

Work on `COc1cc(N(C)c2ccnc3ccc(C(F)(F)F)cc23)cc(OC)c1OC` yielded a % binding [2] of 92% and a % binding [3] of 80%.

Work on `Cn1cc(-n2cnc3c(NCc4nc5cc(Cl)c(Cl)cc5[nH]4)nc(N4CCOCC4)nc32)cn1` yielded a % of control [4] of -5.86%.

`Cc1cc(C)cc([C@@H]2c3cc(C)ccc3NC(=O)CN2C(=O)c2ccc(Br)s2)c1` gave a % of inhibition [5] of 1%.

`COc1cc(Nc2nc(C)cc(-c3cnn4nc(OC)ccc34)n2)cc(C(F)(F)F)c1` was tested, and the % of control [6] was 79%.

With `CC[C@@H]1[C@H](F)C(=O)N[C@@H]1COc1nccc2cc(C(N)=O)c(OC)cc12` [ZIMLOVISERTIB] the % of inhibition [7] was -1% and the % of inhibition [8] was 13.8%.

`CN(C)CCOc1ccc(-c2nc(-c3ccncc3)c(-c3ccc4c(c3)CC/C4=N\O)[nH]2)cc1` was tested, and the % of control [9] was 100%.

`CN(C)C/C=C/C(=O)Nc1ccc(C(=O)N2CCCC(Nc3ncc(Cl)c(-c4c[nH]c5ccccc45)n3)C2)cc1` (stereo not given) showed a % of control [10] of 80%.
